The values that follow come from publication PMC11352859, “Functionalized Congeners of 2H-Chromene P2Y6 Receptor Antagonists” (Cells, 2024).

A word on the IC50: it is the midpoint of a concentration-inhibition curve. Broadly, the Ki is a measure of affinity in units of concentration, obtained from inhibition or displacement.

Read-outs that look alike come from different tables or passages of the source.

Experiment [1] addresses T1, hP2Y6R (Homo sapiens, UniProt Q15077).
T1 construct: expressed in transfected cells
Put plainly: UDP (100 nM)-induced Ca2+ mobilization in hP2Y6R stably transfected 1321N1 astrocytoma cells. Format: cell-based. As for the experimental part: To screen for P2Y6R antagonist activity, PLC-mediated calcium mobilization assays were carried out using the recombinant human P2Y6R stably expressed in 1321N1 astrocytoma cells (hP2Y6R-1321N1) according to the previously published method. Briefly, the hP2Y6R-1321N1 cells were seeded on 96-well black plates and incubated overnight. The antagonists were pretreated along with the FLIPR dye (Calcium 6 assay kit, Molecular Devices, San Jose, CA, USA) containing 5 mM probenecid for 45 min, prior to agonist addition followed by an immediate intracellular Ca^2+ measurement. […] Here, probenecid was used as an organic anion transporter inhibitor to prevent the efflux of the dye into the extracellular environment. During incubation, the membrane permeable dye enters the cytoplasm and cleaves the acetoxymethyl protection to enable Ca^2+ binding. When the P2Y6R was activated by UDP, the increased calcium concentration was directly measured by intracellular changes in the fluorescence intensity with a Fluorescent Imaging Plate Reader (FLIPR^TETRA, Molecular Devices, San Jose, CA, USA).

For experiment [2], the target named is T2, κ-opioid receptor (KOR) (Homo sapiens, UniProt P41145).
T2 construct: NIMH Psychoactive Drug Screening Program (PDSP)
T2 sequence (P41145 whole entry): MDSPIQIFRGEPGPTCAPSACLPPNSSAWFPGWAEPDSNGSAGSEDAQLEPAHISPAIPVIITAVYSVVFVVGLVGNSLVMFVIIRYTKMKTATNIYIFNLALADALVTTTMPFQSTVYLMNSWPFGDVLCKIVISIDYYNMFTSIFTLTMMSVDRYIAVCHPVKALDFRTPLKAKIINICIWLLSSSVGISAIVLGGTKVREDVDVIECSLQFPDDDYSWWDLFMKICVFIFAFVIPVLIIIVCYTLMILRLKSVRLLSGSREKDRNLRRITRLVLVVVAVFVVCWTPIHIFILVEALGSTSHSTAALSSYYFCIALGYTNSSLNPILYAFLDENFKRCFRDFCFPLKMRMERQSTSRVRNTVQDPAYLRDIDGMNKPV
Nature of the experiment: PDSP binding assay, κ-opioid. The source says:
(§1) Table S2. Off-target screening (to replace table later). We thank Dr. Bryan L. Roth (Univ. North Carolina at Chapel Hill) and National Institute of Mental Health's Psychoactive Drug Screening Program (Contract # HHSN-271-2008-00025-C) for screening data. Reference: Besnard et al.
(§2) Procedures: https://pdsp.unc.edu/pdspweb/content/UNC-CH%20Protocol%20Book.pdf […]
(§3) nucleosides were found at the following sites (human unless noted): 5HT1A, 5HT1B, 5HT1D, […]
(§4) β3, BZP rat brain site, D1, D2, D3, D4, D5, GABAA, H1, H2, H3, H4, M1, M2, M5, δ-opioid receptor (DOR), κ-opioid receptor (KOR), μ-opioid receptor (MOR), σ1, σ2, DAT, NET, SERT. Ki values […]
(§5) Compound # PDSP # Receptor LogKi Ki (nM)

Experiment [3] addresses T3, SERT (Homo sapiens, UniProt P31645).
T3 construct: NIMH Psychoactive Drug Screening Program (PDSP)
Put plainly: PDSP binding assay, SERT. The settings on record: Table S2, single determination.
Text: as §1, §2, §3, §4, §5

For experiment [4], the system named is hP2Y6R-1321N1 human astrocytoma cells. Put plainly: MTT cell viability assay, hP2Y6R-1321N1 astrocytoma cells. The settings on record: for % survival: P2Y6R-astrocytoma, 12 h, MTT. Format: cell-based. As for the experimental part: The 1321N1 astrocytoma (hP2Y6R-overexpressing) and HeLa (non-transfected) cell lines were cultured in Dulbecco’s modified Eagle’s medium (DMEM, HyClone, Logan, UT, USA) supplemented with 5% heat-inactivated fetal bovine serum (FBS, HyClone, UT, USA), 100 U/mL penicillin, and 100 µg/mL streptomycin in 5% CO2 at 37 °C. The cell viability was determined using an MTT kit (Sigma, St. Louis, MO, USA) according to the manufacturer’s instructions. Briefly, 1 × 10^4 cells were seeded in triplicate in 96-well plates. The hP2Y6R-astrocytoma and HeLa cells were treated with a P2Y6R agonist and antagonists at a range of concentrations and incubated for 12 h. The cell viability was measured at 490 nm using a SpectraMax-M5 Spectrometer (Molecular Devices, San Jose, CA, USA).
On the technique in general: Tetrazolium dyes change colour on reduction, which living cells bring about.

T1 sequence (Q15077 whole entry): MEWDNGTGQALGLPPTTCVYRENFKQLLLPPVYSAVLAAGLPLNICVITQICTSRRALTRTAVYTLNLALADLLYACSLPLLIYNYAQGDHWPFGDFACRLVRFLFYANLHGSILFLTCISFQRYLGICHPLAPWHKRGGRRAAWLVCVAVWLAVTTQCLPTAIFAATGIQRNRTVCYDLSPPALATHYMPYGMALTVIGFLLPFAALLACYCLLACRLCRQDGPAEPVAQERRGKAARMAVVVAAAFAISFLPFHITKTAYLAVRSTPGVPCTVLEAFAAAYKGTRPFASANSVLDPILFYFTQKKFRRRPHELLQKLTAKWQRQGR
T3 sequence (P31645 whole entry): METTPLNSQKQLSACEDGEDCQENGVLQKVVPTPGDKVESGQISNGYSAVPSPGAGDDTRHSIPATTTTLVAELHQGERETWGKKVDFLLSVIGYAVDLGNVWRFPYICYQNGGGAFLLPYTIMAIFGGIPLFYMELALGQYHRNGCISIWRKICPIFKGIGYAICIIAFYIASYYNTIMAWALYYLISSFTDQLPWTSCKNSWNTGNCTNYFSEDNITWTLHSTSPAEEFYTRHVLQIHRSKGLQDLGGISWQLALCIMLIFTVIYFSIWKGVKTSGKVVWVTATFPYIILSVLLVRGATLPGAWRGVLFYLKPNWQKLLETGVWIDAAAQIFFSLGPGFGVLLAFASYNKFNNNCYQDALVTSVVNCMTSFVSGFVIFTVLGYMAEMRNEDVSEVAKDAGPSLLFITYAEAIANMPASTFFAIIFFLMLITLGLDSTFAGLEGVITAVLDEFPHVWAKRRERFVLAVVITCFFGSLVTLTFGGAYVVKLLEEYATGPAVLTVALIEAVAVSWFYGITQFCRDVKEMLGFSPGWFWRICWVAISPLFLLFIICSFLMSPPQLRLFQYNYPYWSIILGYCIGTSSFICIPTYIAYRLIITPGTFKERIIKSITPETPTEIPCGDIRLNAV

With `CC(C)(C)OC(=O)NCCCCCCCC#Cc1ccc2c(c1)C=C([N+](=O)[O-])C(C(F)(F)F)O2` (stereo not shown) [Compound 30, tert-Butyl (9-(3-nitro-2-(trifluoromethyl)-2H-chromen-6-yl)non-8-yn-1-yl)carbamate], in experiment [1] (UDP 100 nM, 3–4 independent triplicate determinations, read-out: IC50, hP2Y6R (Mean ± SEM)), the IC50 was found to be 162 ± 13 nM. In addition, the “fold greater affinity than the corresponding pivaloyl derivative” value in experiment [1] (hP2Y6R IC50 ratio) turned out to be 107 fold. The Ki in experiment [2] (PDSP, mean, n = 2, read-out: Ki, κ-opioid) is 2200 nM; in experiment [2] (Table S2, single determination, read-out: Ki (nM), KOR), 1400 nM; in experiment [3], over 10000 nM. Moreover, the “% survival” value in experiment [4] (0.05 µM) came out at 98%; in experiment [4] (0.1 µM), 98%; in experiment [4] (0.5 µM), 83%; in experiment [4] (1 µM), 77%. The molecule also displayed an inhibition of viability in experiment [4] (hP2Y6R-1321N1 cells, at 1 µM, 12 h exposure) of 23%.
